# Measurements: patent US20050209278A1, “Piperidinyl- and piperazinyl-sulfonylmethyl hydroxamic acids and their use as protease inhibitors” (priority 2002, published 2005)
# Target: T1, MMP-1 (Homo sapiens, UniProt P03956)
# T1 construct: made in house; host or cells: MMP-1-transfected HT-1080 cells (spent media)
# T1 sequence (P03956 100-469): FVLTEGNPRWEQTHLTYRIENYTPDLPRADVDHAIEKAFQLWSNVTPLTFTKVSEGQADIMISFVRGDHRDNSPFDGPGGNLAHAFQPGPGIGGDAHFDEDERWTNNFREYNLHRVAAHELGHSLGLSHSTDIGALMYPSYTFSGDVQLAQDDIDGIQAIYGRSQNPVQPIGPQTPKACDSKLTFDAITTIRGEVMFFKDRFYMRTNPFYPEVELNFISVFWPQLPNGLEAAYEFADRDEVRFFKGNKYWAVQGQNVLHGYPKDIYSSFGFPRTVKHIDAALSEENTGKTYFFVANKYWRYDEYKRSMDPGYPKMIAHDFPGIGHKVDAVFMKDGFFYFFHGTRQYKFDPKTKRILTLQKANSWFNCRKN
# Assay: In vitro MMP inhibition, Ki determination (fluorogenic substrate II)
# Format: biochemical
# Details: value outside parentheses; read-out: MMP-1 Ki
row,Compound,Ki [µM]
1,Cc1ccc(-c2csc(N3CCN(S(=O)(=O)C4(C(=O)NO)CCOCC4)CC3)n2)cc1 [Example 412],> 10
2,O=C(NO)C1(S(=O)(=O)N2CCN(c3ccc(-c4nn[nH]n4)cc3)CC2)CCOCC1 [Example 419],> 10
3,CCCCc1ccc(C2CCN(S(=O)(=O)C3(C(=O)NO)CCN(CCOC)CC3)CC2)nc1 [Example 397],> 10
4,O=C(NO)C1(S(=O)(=O)N2CCC(c3ccc(-c4cccs4)c(F)c3)CC2)CCOCC1 [Example 407],> 10
5,O=C(NO)C1(S(=O)(=O)N2CCC(c3ccc(N4CCCC4)cn3)CC2)CCOCC1 [Example 408],> 10
6,O=C(NO)C1(S(=O)(=O)N2CCC(c3ccc(-c4ccccn4)cn3)CC2)CCOCC1 [Example 409],> 10
7,CCCCCC/C=C\C1CCN(S(=O)(=O)C2(C(=O)NO)CCOCC2)CC1 [Example 401],> 10
8,O=C(NO)C1(S(=O)(=O)N2CCC(COCc3ccc(SC(F)(F)F)cc3)CC2)CCOCC1 [Example 405],8.32
9,O=C(NO)C1(S(=O)(=O)N2CCC(COCc3ccc(C(F)(F)F)cc3)CC2)CCOCC1 [Example 403],> 10
10,CCC(F)(F)CCc1ccc(C2CCN(S(=O)(=O)C3(C(=O)NO)CCOCC3)CC2)cn1 [Example 411],> 10
11,CCCCCCCOC1CCN(S(=O)(=O)C2(C(=O)NO)CCOCC2)CC1 [Example 406],9.01
12,Cc1cccc(-c2csc(N3CCN(S(=O)(=O)C4(C(=O)NO)CCOCC4)CC3)n2)c1 [Example 413],> 10
13,O=C(NO)C1(S(=O)(=O)N2CCN(c3nc(-c4ccccc4)cs3)CC2)CCOCC1 [Example 415],> 10
14,O=C(NO)C1(S(=O)(=O)N2CCC(COCc3ccc(OC(F)(F)F)cc3)CC2)CCOCC1 [Example 404],> 10
15,CCCCc1ccc(C2(O)CCN(S(=O)(=O)C3(C(=O)NO)CCOCC3)CC2)nc1 [Example 420],> 10

# Stronger by Ki, values ahead:
row,Ki [µM],Compound
1,1.83,O=C(NO)C1(S(=O)(=O)N2CCC(c3ccc(-c4cccc(F)c4)cn3)CC2)CCOCC1 [Example 417]
2,3.49,CCCCOc1ccc(C2CCN(S(=O)(=O)C3(C(=O)NO)CCOCC3)CC2)nc1 [Example 410]
3,6.42,Cc1ccc(-c2ccc(C3CCN(S(=O)(=O)C4(C(=O)NO)CCOCC4)CC3)nc2)s1 [Example 416]
4,3.08,O=C(NO)C1(S(=O)(=O)N2CCC(c3ccc(OCCC(F)(F)F)cn3)CC2)CCOCC1 [Example 418]
5,3.32,CCCC#Cc1cnc(N2CCN(S(=O)(=O)C3(C(=O)NO)CCOCC3)CC2)s1 [Example 400]
6,3.65,CCCCCC/C=C/C1CCN(S(=O)(=O)C2(C(=O)NO)CCOCC2)CC1 [Example 402]
7,1.95,O=C(NO)C1(S(=O)(=O)N2CCC(c3ccc(OCc4ccccc4)cn3)CC2)CCOCC1 [Example 398]
